Source: BindingDB's records for doi:10.1016/j.bmcl.2009.04.040 (The University of Texas Southwestern Medical Center At …, 2009)

Target: Proto-oncogene Wnt-3 (Homo sapiens, UniProt P56703)
Assay: Inhibition of Wnt3 expressed in mouse L-cells assessed as inhibition of Wnt/catanin signaling pathway by luciferase reporter gene assay

Chain of Proto-oncogene Wnt-3 (P56703 whole entry): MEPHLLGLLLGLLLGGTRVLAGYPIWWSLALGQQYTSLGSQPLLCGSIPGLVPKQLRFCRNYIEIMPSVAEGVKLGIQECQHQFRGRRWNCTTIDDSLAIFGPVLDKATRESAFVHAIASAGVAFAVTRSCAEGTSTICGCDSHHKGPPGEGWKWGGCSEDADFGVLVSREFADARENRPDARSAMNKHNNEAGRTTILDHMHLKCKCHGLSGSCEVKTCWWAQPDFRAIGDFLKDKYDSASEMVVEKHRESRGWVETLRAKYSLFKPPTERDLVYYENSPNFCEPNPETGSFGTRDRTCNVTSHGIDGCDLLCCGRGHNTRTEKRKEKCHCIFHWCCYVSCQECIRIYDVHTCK

EC50 [µM] | SMILES
> 25 | O=C(Nc1ccc(-n2c(O)c3c(c2O)[C@H]2C=C[C@@H]3C2)cc1)Nc1cccc2cccnc12 [1-[4-((1R,2S,6R,7S)-3,5-Dioxo-4-aza-tricyclo[5.2.1.0*2,6*]dec-8-en-4-yl)-phenyl]-3-quinolin-8-yl-urea]
1 | O=C(Nc1cccc2cccnc12)c1ccc(-n2c(O)c3c(c2O)[C@H]2C=C[C@@H]3C2)cc1Cl [2-Chloro-4-((1R,2S,6R,7S)-3,5-dioxo-4-aza-tricyclo[5.2.1.0*2,6*]dec-8-en-4-yl)-N-quinolin-8-yl-benzamide]
> 25 | O=C(Nc1cccc2cccnc12)c1ccc(-n2c(O)c3c(c2O)[C@H]2C=C[C@@H]3C2)c(Cl)c1 [3-Chloro-4-((1R,2S,6R,7S)-3,5-dioxo-4-aza-tricyclo[5.2.1.0*2,6*]dec-8-en-4-yl)-N-quinolin-8-yl-benzamide]
> 25 | O=C(Nc1ccccc1)c1ccc(-n2c(O)c3c(c2O)[C@H]2C=C[C@H]3C2)cc1 [4-((1R,2S,6R,7R)-3,5-Dioxo-4-aza-tricyclo[5.2.1.0*2,6*]dec-8-en-4-yl)-N-phenyl-benzamide]
> 25 | COc1cc(-n2c(O)c3c(c2O)[C@H]2C=C[C@@H]3C2)ccc1C(=O)Nc1cccc2cccnc12 [4-((1R,2S,6R,7S)-3,5-Dioxo-4-aza-tricyclo[5.2.1.0*2,6*]dec-8-en-4-yl)-2-methoxy-N-quinolin-8-yl-benzamide]
2 | Cc1cc(-n2c(O)c3c(c2O)[C@H]2C=C[C@@H]3C2)ccc1C(=O)Nc1cccc2cccnc12 [4-((1R,2S,6R,7S)-3,5-Dioxo-4-aza-tricyclo[5.2.1.0*2,6*]dec-8-en-4-yl)-2-methyl-N-quinolin-8-yl-benzamide]
> 25 | COc1cc(C(=O)Nc2cccc3cccnc23)ccc1-n1c(O)c2c(c1O)[C@H]1C=C[C@@H]2C1 [4-((1R,2S,6R,7S)-3,5-Dioxo-4-aza-tricyclo[5.2.1.0*2,6*]dec-8-en-4-yl)-3-methoxy-N-quinolin-8-yl-benzamide]
> 25 | Cc1cc(C(=O)Nc2cccc3cccnc23)ccc1-n1c(O)c2c(c1O)[C@H]1C=C[C@@H]2C1 [4-((1R,2S,6R,7S)-3,5-Dioxo-4-aza-tricyclo[5.2.1.0*2,6*]dec-8-en-4-yl)-3-methyl-N-quinolin-8-yl-benzamide]
20 | O=C(Nc1cccc(C(F)(F)F)c1)c1ccc(-n2c(O)c3c(c2O)[C@H]2C=C[C@@H]3C2)cc1 [4-((1R,2S,6R,7S)-3,5-Dioxo-4-aza-tricyclo[5.2.1.0*2,6*]dec-8-en-4-yl)--(3-trifluoromethyl-phenyl)-benzamide]
> 25 | O=C(Nc1ccccc1F)c1ccc(-n2c(O)c3c(c2O)[C@H]2C=C[C@@H]3C2)cc1 [4-((1R,2S,6R,7S)-3,5-Dioxo-4-aza-tricyclo[5.2.1.0*2,6*]dec-8-en-4-yl)-N-(2-fluoro-phenyl)-benzamide]
1 | COc1ccccc1NC(=O)c1ccc(-n2c(O)c3c(c2O)[C@H]2C=C[C@@H]3C2)cc1 [4-((1R,2S,6R,7S)-3,5-Dioxo-4-aza-tricyclo[5.2.1.0*2,6*]dec-8-en-4-yl)-N-(2-methoxy-phenyl)-benzamide]
> 25 | O=C(Nc1ccccc1C(F)(F)F)c1ccc(-n2c(O)c3c(c2O)[C@H]2C=C[C@@H]3C2)cc1 [4-((1R,2S,6R,7S)-3,5-Dioxo-4-aza-tricyclo[5.2.1.0*2,6*]dec-8-en-4-yl)-N-(2-trifluoromethyl-phenyl)-benzamide]
> 25 | O=C(Nc1cccc(F)c1)c1ccc(-n2c(O)c3c(c2O)[C@H]2C=C[C@@H]3C2)cc1 [4-((1R,2S,6R,7S)-3,5-Dioxo-4-aza-tricyclo[5.2.1.0*2,6*]dec-8-en-4-yl)-N-(3-fluoro-phenyl)-benzamide]
4 | O=C(Nc1ccc(F)cc1)c1ccc(-n2c(O)c3c(c2O)[C@H]2C=C[C@@H]3C2)cc1 [4-((1R,2S,6R,7S)-3,5-Dioxo-4-aza-tricyclo[5.2.1.0*2,6*]dec-8-en-4-yl)-N-(4-fluoro-phenyl)-benzamide]
